Assay results reported in patent US20210322396A1, “COMPOSITIONS WITH SYNERGISTIC PERMEATION ENHANCERS FOR DRUG DELIVERY” (Children's Medical Center Corporation, priority 2018, published 2021).
Values joined by “and” are separate entries in the source; they are usually repeats but may differ in a detail not shown here. Identical values can stand only once. Counter-ions that a name gives are not always drawn. Like-named read-outs stand apart in the source and are kept apart here.

Columns and labels:
[1] = system: action potentials; details: read-out: median inhibitory concentration, amplitudes of action potentials, cited from earlier work
[2] = target: sodium current; details: read-out: KI, inhibition of sodium current, cited from earlier work
[3] = system: S. pneumoniae; details: cited from earlier work
[4] = system: H. influenza; details: cited from earlier work
[5] = Concentration-response curve fitting and isobolographic analysis of CPEs on VCIP48; format: in vitro ADME, chinchilla
[6] = physchem; details: water
[7] = three-parameter hyperbolic fit of CPE concentration-VCIP48 curve

SMILES: CCCCN1CCCCC1C(=O)Nc1c(C)cccc1C (stereo not drawn) [bupivacaine]
- IC50 ([1]; in vitro): 180 µM
- Ki ([2]; in vitro): 25 µM

SMILES: NC1=N[C@H](O)[C@H]2[C@H]3O[C@]4(O)O[C@@H]([C@@H](O)[C@@]2(N1)[C@@H]4O)[C@]3(O)CO [TTX, Tetrodotoxin]
- IC50 [1]: 0.005 to 0.006 µM
- Ki [2]: 0.001 to 0.002 µM

SMILES: O=C(O)c1cn(C2CC2)c2cc(N3CCNCC3)c(F)cc2c1=O [ciprofloxacin]
- minimum inhibitory concentration [3]: about 4 μg/mL
- minimum inhibitory concentration [4]: about 4 μg/mL

SMILES: CCCCN1CCCCC1C(=O)Nc1c(C)cccc1C (stereo not drawn) [BUP-fb, bupivacaine free base]
- solubility limit (in pure LIM): ~10%

SMILES: CCCCCCCCCCCCOS(=O)(=O)[O-].[Na+] [SDS, Sodium dodecyl sulfate]
- Emax (peak VCIP48), derived experimentally ([5]; experimentally determined peak effect, sulfate): 0.4 mg and 0.40 ^b mg
- concentration required to achieve VCIP48=0.24 mg (equivalent dose) ([5]; single CPE in CPPB): 10%
- p (Hill coefficient) [5, 7]: 0.82 ^
- Emax (maximal VCIP48), derived from Equation (1) ([5]; three-parameter hyperbolic fit of CPE concentration-VCIP48 curve, sulfate): 0.65 mg and 0.65 ^a mg

SMILES: C=C(C)[C@H]1CC=C(C)CC1 [LIM, limonene]
- CPE concentration at which the permeation enhancement effect plateaued [5]: around 4%
- Emax (maximal VCIP48), derived from Equation (1) [5]: 0.41 mg
- concentration required to achieve VCIP48=0.22 mg (equivalent dose) [5]: ~1.8%
- concentration required to achieve a VCIP48 of 0.4 mg (equivalent dose) [5]: ~4%
- p (Hill coefficient) [5]: 5.33

SMILES: CCCCN1CCCCC1C(=O)Nc1c(C)cccc1C (stereo not drawn) [BUP, bupivacaine hydrochloride]
- solubility [6]: ≥ 20 mg/mL
- soluble concentration (in 12%[P407-PBP] solution, weight by volume): up to 4%
- effect of pH on solubility in water (pH of the formulation tuned in the range of 3 to 9): not affected
- Emax relative to that of LIM [5]: 9.76%
- Emax relative to that of SDS [5]: 6.15%
- CPE concentration at which the permeation enhancement effect plateaued ([5]; Cip permeation, CPPB): ~1%
- concentration required to achieve VCIP48=0.22 mg (equivalent dose) ([5]; single CPE in CPPB): infinite
- concentration required to achieve VCIP48=0.24 mg (equivalent dose) ([5]; single CPE in CPPB): infinite
- concentration required to achieve a VCIP48 of 0.4 mg (equivalent dose) ([5]; single CPE in CPPB): infinite
- Emax (maximal VCIP48), derived from Equation (1) [5, 7]: 0.04 mg
- p (Hill coefficient) [5, 7]: 2.75
